Data from ChEMBL document CHEMBL1152080, “Linear sesterterpenes from the Caribbean sponge Thorecta horridus with inflammatory activity” (1991).

How the values were obtained:
Format in all cases: functional
[1] = species: Rattus norvegicus; assay: Percent release of histamine from rat peritoneal cells was determined at 10 ug/mL concentration of compound
[2] = species: Rattus norvegicus; assay: Percent release of histamine from rat peritoneal cells was determined at 1 ug/mL concentration of compound
[3] = tested on: Rattus norvegicus; assay: Compound was evaluated in vivo for its inflammatory activity in rat paw pretreated with mepyramine (2.5 mg/kg) and methysergide (3 mg/Kg)after administration of compound (1 mg) and percent edema was reported
[4] = species: Rattus norvegicus; assay: Percent release of histamine from rat peritoneal cells was determined at 0.1 ug/mL concentration of compound

## CC(C)=CCC/C(C)=C/CC/C(C)=C/CC/C(C)=C/CCC1=CC(=O)OC1
[1]
  Histamine release: 30%
[2]
  Histamine release: 11%
[3]
  Supression: 65%
[4]
  Histamine release: 4%
